Literature values in patent US8835486B2, “Pharmaceutical formulation containing an HMG-COA reductase inhibitor and method for the preparation thereof” (priority 2006, dated 2014).

- solubility in water: > 50 mg/mL
Compound: CC(C)n1c(/C=C/C(O)CC(O)CC(=O)O)c(-c2ccc(F)cc2)c2ccccc21 (stereo not shown) [Fluvastatin]
